# In patent US11590116B2 (THERAVANCE BIOPHARMA R&D IP, LLC, priority 2019, dated 2023):
# What was measured:
# [1] = system: TGF-β-stimulated SMAD3 phosphorylation in BEAS-2B cells; assay: Cellular ALK5 potency assay, inhibition of TGF-β stimulated pSMAD3 formation in BEAS-2B cells; assay type: cell-based; details: Homo sapiens; inhibition of TGF-β stimulated pSMAD3 formation, BEAS-2B cells; read-out: BEAS2B pIC50 (converted)
# In short: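 Cells seeded overnight; rinse with supplemented HBSS; compound 1 h at 37 °C; TGF-β 10 ng/mL final, 30 min; lyse; AlphaLISA acceptor and detector beads 2 h apart, read next day. Potency expressed as pIC50.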
# [2] = target: T1, recombinant human ALK5 (TGF-βR1) protein (Homo sapiens, UniProt P36897); assay: Biochemical ALK5 (TGF-βR1) assay to measure pKi (LANCE Ultra ULight kinase assay); details: apparent pKi from pIC50 by Cheng-Prusoff, read-out: ALK5 pKi (converted)
# T1 construct: purchased Life Technologies PR9075A
# T1 sequence (P36897 34-503): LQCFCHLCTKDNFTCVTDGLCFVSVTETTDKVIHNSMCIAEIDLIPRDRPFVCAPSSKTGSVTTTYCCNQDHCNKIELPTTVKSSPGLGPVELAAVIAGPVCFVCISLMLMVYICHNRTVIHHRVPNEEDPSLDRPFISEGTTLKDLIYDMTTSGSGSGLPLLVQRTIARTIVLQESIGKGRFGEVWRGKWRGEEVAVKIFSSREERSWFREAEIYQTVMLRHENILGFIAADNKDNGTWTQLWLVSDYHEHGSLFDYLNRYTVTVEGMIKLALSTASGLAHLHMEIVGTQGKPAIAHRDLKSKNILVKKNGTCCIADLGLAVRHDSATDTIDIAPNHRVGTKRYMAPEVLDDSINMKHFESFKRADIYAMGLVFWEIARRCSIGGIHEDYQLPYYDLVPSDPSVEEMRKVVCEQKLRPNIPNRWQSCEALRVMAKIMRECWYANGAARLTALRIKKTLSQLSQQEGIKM
# In short: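 Compounds (10 μM to 25 pM) preincubated 60 minutes at room temperature with enzyme, then reaction run 60 minutes at 37° C with ATP added as 125 μM (5× final). Stopped with EDTA plus Eu-anti-phospho-Topoisomerase 2-alpha (Thr1342) antibody, TR-FRET read at 665 nm; pIC50 converted to pKi via Cheng-Prusoff.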
SMILES,IC50 [1] [nM],Ki [2] [nM]
"Cc1cccc(-c2[nH]ncc2-c2ccc3ncc(C(=O)N4CC(N5CCOCC5)C4)cc3n2)n1 [Compound 352, [6-[5-(6-methyl-2-pyridyl)-1H-pyrazol-4-yl]-1,5-naphthyridin-3-yl]-(3-morpholinoazetidin-1-yl)methanone]",200 to 1260,3.98 to 31.6
"Cc1cccc(-c2n[nH]cc2-c2ccc3ncc(NC(=O)CN4CCOCC4)cc3n2)n1 [Compound 353, N-[6-[3-(6-methyl-2-pyridyl)-1H-pyrazol-4-yl]-1,5-naphthyridin-3-yl]-2-morpholino-acetamide]",25.1 to 158,0.0398 to 0.316
"Cc1cccc(-c2n[nH]cc2-c2ccc3ncc(-c4c[nH]nn4)cc3n2)n1 [Compound 355, 2-[3-(6-methyl-2-pyridyl)-1H-pyrazol-4-yl]-7-(1H-triazol-4-yl)-1,5-naphthyridine]",< 20,< 0.0316
Cc1cccc(-c2n[nH]cc2-c2ccc3ncc(-c4cn[nH]c4)c(C4CCCN4)c3c2)n1 (stereo not shown) [Compound 356],200 to 1260,0.0398 to 0.316
"Cc1cccc(-c2n[nH]cc2-c2ccc3ncc(N(C)CC4CNC4)cc3n2)n1 [Compound 357, N-(azetidin-3-ylmethyl)-N-methyl-6-[3-(6-methyl-2-pyridyl)-1H-pyrazol-4-yl]-1,5-naphthyridin-3-amine]",25.1 to 158,< 0.0316
"Cc1cccc(-c2n[nH]cc2-c2ccc3ncc(NC(=O)CCCN4CCOCC4)cc3n2)n1 [Compound 358, N-[6-[3-(6-methyl-2-pyridyl)-1H-pyrazol-4-yl]-1,5-naphthyridin-3-yl]-4-morpholino-butanamide]",25.1 to 158,0.0398 to 0.316
"Cc1cccc(-c2nnn(Cc3ccccc3)c2-c2ccc3ncc(N4CCNCC4)cc3n2)n1 [Compound 359, 2-(1-benzyl-4-(6-methylpyridin-2-yl)-1H-1,2,3-triazol-5-yl)-7-(piperazin-1-yl)-1,5-naphthyridine]",25.1 to 158,0.0398 to 0.316
"Cc1cccc(-c2c(-c3ccc4ncc(N5CCCNCC5)cc4c3)nnn2Cc2ccccc2)n1 [Compound 360, 6-[1-benzyl-5-(6-methyl-2-pyridyl)triazol-4-yl]-3-(1,4-diazepan-1-yl)quinoline]",1580 to 10000,0.398 to 3.16
"Cc1cccc(-c2[nH]ncc2-c2ccc3ncc(C(=O)OCCN4CCCC4)cc3n2)n1 [Compound 361, 2-pyrrolidin-1-ylethyl 6-[5-(6-methyl-2-pyridyl)-1H-pyrazol-4-yl]-1,5-naphthyridine-3-carboxylate]",25.1 to 158,0.398 to 3.16
"Cc1cccc(-c2n[nH]cc2-c2ccc3ncc(N4CCn5nc(C6=CCNC6)nc5C4)cc3n2)n1 [Compound 362, 7-[2-(2,5-dihydro-1H-pyrrol-3-yl)-6,8-dihydro-5H-[1,2,4]triazolo[1,5-a]pyrazin-7-yl]-2-[3-(6-methyl-2-pyridyl)-1H-pyrazol-4-yl]-1,5-naphthyridine]",200 to 1260,0.0398 to 0.316
"Cc1cccc(-c2nc3ccccn3c2-c2ccc3ncc(N4CCCNCC4)cc3c2)n1 [Compound 363, 3-(1,4-diazepan-1-yl)-6-[2-(6-methyl-2-pyridyl)imidazo[1,2-a]pyridin-3-yl]quinoline]",25.1 to 158,0.0398 to 0.316
"CNC1CCN(c2cnc3ccc(-c4c[nH]nc4-c4cccc(C(C)C)n4)nc3c2)CC1 [Compound 364, 1-[6-[3-(6-isopropyl-2-pyridyl)-1H-pyrazol-4-yl]-1,5-naphthyridin-3-yl]-N-methyl-piperidin-4-amine]",25.1 to 158,0.0398 to 0.316
"Cc1cccc(-c2[nH]cnc2-c2ccc3ncc(Nc4ccc(N5CCN(C(C)C)CC5)cn4)cc3c2)n1 [Compound 365, N-[5-(4-isopropylpiperazin-1-yl)-2-pyridyl]-6-[5-(6-methyl-2-pyridyl)-1H-imidazol-4-yl]quinolin-3-amine]",25.1 to 158,0.0398 to 0.316
"Cc1cccc(-c2n[nH]cc2-c2ccc3ncc(-c4c(C)n[nH]c4C)cc3n2)n1 [Compound 366, 7-(3,5-dimethyl-1H-pyrazol-4-yl)-2-[3-(6-methyl-2-pyridyl)-1H-pyrazol-4-yl]-1,5-naphthyridine]",200 to 1260,0.0398 to 0.316
"Cc1cccc(-c2[nH]cnc2-c2ccc3ncc(-c4ccccn4)cc3c2)n1 [Compound 367, 6-[5-(6-methyl-2-pyridyl)-1H-imidazol-4-yl]-3-(2-pyridyl)quinoline]",25.1 to 158,0.0398 to 0.316
"Cc1cccc(-c2n[nH]cc2-c2ccc3ncc(N4CC(N(C)C)C4)cc3n2)n1 [Compound 368, N,N-dimethyl-1-[6-[3-(6-methyl-2-pyridyl)-1H-pyrazol-4-yl]-1,5-naphthyridin-3-yl]azetidin-3-amine]",25.1 to 158,< 0.0316
"COC(=O)c1cccc(-c2cnc3ccc(-c4c[nH]nc4-c4cccc(C)n4)nc3c2)c1 [Compound 369, methyl 3-[6-[3-(6-methyl-2-pyridyl)-1H-pyrazol-4-yl]-1,5-naphthyridin-3-yl]benzoate]",< 20,< 0.0316
"Cc1cccc(-c2[nH]cnc2-c2ccc3ncc(C4=CC[C@H](NC(=O)C5CCNCC5)CC4)cc3c2)n1 [Compound 370, N-[(1R)-4-[6-[5-(6-methyl-2-pyridyl)-1H-imidazol-4-yl]-3-quinolyl]cyclohex-3-en-1-yl]piperidine-4-carboxamide]",1580 to 10000,0.0398 to 0.316
"COc1[nH]nc(-c2cccc(C)n2)c1-c1ccc2ncc(-c3cnn4c3NCC4)cc2n1 [Compound 371, 7-(2,3-dihydro-1H-imidazo[1,2-b]pyrazol-7-yl)-2-[5-methoxy-3-(6-methyl-2-pyridyl)-1H-pyrazol-4-yl]-1,5-naphthyridine]",200 to 1260,0.398 to 3.16
"Cc1cccc(-c2n[nH]cc2-c2ccc3ncc(CCC(=O)N4CCN(C(C)C)CC4)cc3n2)n1 [Compound 372, 1-(4-isopropylpiperazin-1-yl)-3-[6-[3-(6-methyl-2-pyridyl)-1H-pyrazol-4-yl]-1,5-naphthyridin-3-yl]propan-1-one]",25.1 to 158,0.398 to 3.16
"Cc1cccc(-c2nnn(Cc3ccccc3)c2-c2ccc3ncc(NCCN4CCN(C(C)C)CC4)cc3n2)n1 [Compound 373, 6-(1-benzyl-4-(6-methylpyridin-2-yl)-1H-1,2,3-triazol-5-yl)-N-(2-(4-isopropylpiperazin-1-yl)ethyl)-1,5-naphthyridin-3-amine]",200 to 1260,0.0398 to 0.316
"Cc1cccc(-c2n[nH]cc2-c2ccc3ncc(-c4ccc(O)nc4)cc3n2)n1 [Compound 374, 5-[6-[3-(6-methyl-2-pyridyl)-1H-pyrazol-4-yl]-1,5-naphthyridin-3-yl]pyridin-2-ol]",25.1 to 158,< 0.0316
"Cc1cccc(-c2n[nH]cc2-c2ccc3ncc(NCC4CCCCN4)cc3n2)n1 (stereo not shown) [Compound 375, 6-[3-(6-methyl-2-pyridyl)-1H-pyrazol-4-yl]-N-(2-piperidylmethyl)-1,5-naphthyridin-3-amine]",25.1 to 158,0.0398 to 0.316
"CNC(=O)[C@H]1CN(c2cnc3ccc(-c4nc[nH]c4-c4cccc(C)n4)cc3c2)CCN1 [Compound 376, (2R)-N-methyl-4-[6-[5-(6-methyl-2-pyridyl)-1H-imidazol-4-yl]-3-quinolyl]piperazine-2-carboxamide]",200 to 1260,0.0398 to 0.316
"CCc1cccc(-c2n[nH]cc2-c2ccc3ncc(N4CCC(NC)CC4)cc3n2)n1 [Compound 377, 1-[6-[3-(6-ethyl-2-pyridyl)-1H-pyrazol-4-yl]-1,5-naphthyridin-3-yl]-N-methyl-piperidin-4-amine]",25.1 to 158,< 0.0316
"Cc1cccc(-c2n[nH]cc2-c2ccc3ncc(C(=O)NCCN4CCN(C(C)C)CC4)cc3n2)n1 [Compound 378, N-[2-(4-isopropylpiperazin-1-yl)ethyl]-6-[3-(6-methyl-2-pyridyl)-1H-pyrazol-4-yl]-1,5-naphthyridine-3-carboxamide]",25.1 to 158,0.0398 to 0.316
"CC(=O)N[C@@H]1CC=C(c2cnc3ccc(-c4nc[nH]c4-c4cccc(C)n4)cc3c2)CC1 [Compound 380, N-[(1S)-4-[6-[5-(6-methyl-2-pyridyl)-1H-imidazol-4-yl]-3-quinolyl]cyclohex-3-en-1-yl]acetamide]",< 20,< 0.0316
"Cc1nc(-c2n[nH]cc2-c2ccc3ncc(NCCN4CCCC4)cc3n2)ccc1F [Compound 381, 6-[3-(5-fluoro-6-methyl-2-pyridyl)-1H-pyrazol-4-yl]-N-(2-pyrrolidin-1-ylethyl)-1,5-naphthyridin-3-amine]",25.1 to 158,< 0.0316
"Cc1cccc(-c2nnn(Cc3ccccc3)c2-c2ccc3ncc(N4CCNCC4)cc3c2)n1 [Compound 382, 6-[3-benzyl-5-(6-methyl-2-pyridyl)triazol-4-yl]-3-piperazin-1-yl-quinoline]",25.1 to 158,0.0398 to 0.316
